Source: patent US7129234B2, “Phenyl heterocyclyl ethers” (Pfizer Inc., priority 2001, dated 2006)
Structures can show the parent of a compound that is named as a salt.

| melting point | SMILES |
| --- | --- |
| 224 to 226 °C | CNCc1cc2ccccc2nc1Oc1ccc(Cl)c(Cl)c1 (as salt: HCl) [Example 104, [2-(3,4-Dichlorophenoxy)-3-quinolinyl]-N-methylmethanamine] |
| 198 to 203 °C | CNCc1cnccc1Oc1ccc(Cl)c(Cl)c1 (as salt: hydrochloride) [Example 103, [4-(3,4-Dichlorophenoxy)-3-pyridinyl]-N-methylmethanamine hydrochloride] |
| 195 to 197 °C | CN(C)Cc1cccnc1Oc1ccc(Cl)cc1 (as salt: hydrochloride) [Example 106, [2-(4-Chlorophenoxy)-3-pyridinyl]-N,N-dimethylmethanamine hydrochloride] |
| 198 to 203 °C | CNCc1cccnc1Oc1ccc(Cl)c(Cl)c1 (as salt: HCl) [Example 105, [2-(3,4-Dichlorophenoxy)-3-pyridinyl]-N-methylmethanamine] |
